This is an account of results in patent US20230132088A1, “DETECTION OF GENE POLYMORPHISMS” (The Board of Trustees of the Leland Stanford Junior …, priority 2020, published 2023).

Usually clearance stands for a measure of how efficiently the substance is removed, as volume per time.

This data set in a line: Population pharmacokinetic analysis of INH clearance in tuberculosis patients, by predicted NAT2 acetylator type. To be noted: human, plasma, INH clearance rate (median), 48 pulmonary TB patients.

As to `NNC(=O)c1ccncc1` [INH, isoniazid], the clearance reads like this: (predicted fast (rapid) acetylators) 778 mL/min; (predicted intermediate acetylators) 683 mL/min; (predicted slow acetylators, standardized weight-based dosing) 322 mL/min.
